Article PMC6835155, “Lessons from LIMK1 enzymology and their impact on inhibitor design” (Biochemical Journal, 2019)
Where a name gives a salt, the structure may show the parent alone.

Assays:
LIMK2KD = target: T1, LIMK2KD (Homo sapiens, UniProt P53671); assay: Differential (dynamic) scanning fluorimetry (DSF) assay, LIMK2KD; type: binding; conditions: LIMK2KD, compound 10 µM, single shot; for ΔTm at 10 µM: read-out: TM Shift LIMK2 (K)
T1 construct: The cDNA coding for LIMK2 residues 330 to 632 was PCR amplified; His6 (N, cleaved yes); made in house; host or cells: baculovirus; Sf9 for virus, TriEx insect cells for expression
T1 sequence (P53671 330-632): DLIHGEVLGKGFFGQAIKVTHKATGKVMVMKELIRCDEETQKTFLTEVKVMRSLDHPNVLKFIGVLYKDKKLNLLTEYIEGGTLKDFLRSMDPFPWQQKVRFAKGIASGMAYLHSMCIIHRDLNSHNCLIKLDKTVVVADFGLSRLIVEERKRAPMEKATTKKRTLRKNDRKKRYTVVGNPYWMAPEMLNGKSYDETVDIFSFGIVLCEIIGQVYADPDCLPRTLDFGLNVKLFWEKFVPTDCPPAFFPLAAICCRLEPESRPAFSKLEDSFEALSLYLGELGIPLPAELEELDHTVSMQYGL

LIMK1KD = target: T2, LIMK1KD (Homo sapiens, UniProt P53667); assay: Differential (dynamic) scanning fluorimetry (DSF) assay, LIMK1KD; type: binding; conditions: 2 µM LIMK1KD, compound 10 µM, single shot; for ΔTm at 10 µM: read-out: TM Shift LIMK1 (K)
T2 construct: His6 (N, cleaved yes); made in house; host or cells: baculovirus; Sf9 for virus, TriEx insect cells for expression
T2 sequence (P53667 330-637): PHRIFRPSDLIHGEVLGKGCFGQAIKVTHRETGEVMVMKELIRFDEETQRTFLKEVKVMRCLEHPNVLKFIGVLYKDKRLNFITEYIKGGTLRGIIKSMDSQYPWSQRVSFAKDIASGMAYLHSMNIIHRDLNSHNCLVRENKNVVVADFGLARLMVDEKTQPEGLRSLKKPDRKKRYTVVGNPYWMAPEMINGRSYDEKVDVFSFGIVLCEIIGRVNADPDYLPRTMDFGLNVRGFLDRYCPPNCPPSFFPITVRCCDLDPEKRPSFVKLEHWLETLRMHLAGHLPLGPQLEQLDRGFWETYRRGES

Compound | ΔTm at 10 µM (LIMK2KD) | ΔTm at 10 µM (LIMK1KD) | TM Shift LIMK2 (K) (LIMK2KD) | TM Shift LIMK1 (K) (LIMK1KD) | also measured
CS(=O)(=O)c1ccc(-c2cnc(N)c(C(=O)Nc3ccccc3)n2)cc1 [VE-821] | 1.5 °C | 0.8 °C |  |  | 
Cc1nc(Nc2n[nH]c3c2CN(C(=O)N[C@H](CN(C)C)c2ccccc2)C3(C)C)c2sccc2n1 [PF-03758309] |  |  | -0.4 K | 0.7 K | 
Oc1cccc(-c2nc(N3CCOCC3)c3oc4ncccc4c3n2)c1 [PI-103] | 0.3 °C | -1 °C |  |  | 
COc1cc(F)c(F)c(Nc2ccc(I)cc2F)c1NS(=O)(=O)C1(C[C@H](O)CO)CC1 [Refametinib] | 1.1 °C | -1 °C |  |  | 
NCC(=O)Nc1ccc(-n2nc(C(F)(F)F)cc2-c2ccc3c(ccc4ccccc43)c2)cc1 [OSU-03012 (AR-12)] |  |  | 0.8 K | -1.2 K | 
CO[C@H]1C[C@@H]2CC[C@@H](C)[C@@](O)(O2)C(=O)C(=O)N2CCCC[C@H]2C(=O)O[C@H]([C@H](C)C[C@@H]2CC[C@@H](OCCO)[C@H](OC)C2)CC(=O)[C@H](C)/C=C(\C)[C@@H](O)[C@@H](OC)C(=O)[C@H](C)C[C@H](C)/C=C/C=C/C=C/1C [Everolimus (RAD001), Everolimus] | -0.9 °C | 0.1 °C |  |  | 
O=C(NC[C@H](O)CO)c1ccncc1Nc1ccc(I)cc1F [Pimasertib (AS-703026), Pimasertib] | 2.1 °C | 0.8 °C |  |  | 
CN1CC[C@H](c2c(O)cc(O)c3c(=O)cc(-c4ccccc4Cl)oc23)[C@H](O)C1 [Alvocidib] | 0.5 °C | 1.9 °C |  |  | 
CC[C@@H]1C(=O)N(C)c2cnc(Nc3ccc(C(=O)N[C@H]4CC[C@H](N5CCN(CC6CC6)CC5)CC4)cc3OC)nc2N1C(C)C [Volasertib (BI 6727), Volasertib] | 0.3 °C | 0.5 °C |  |  | 
CN1CCN(c2nc(C3=C(c4c[nH]c5ccccc45)C(=O)NC3=O)c3ccccc3n2)CC1 [Sotrastaurin] | 1.2 °C | 0.6 °C |  |  | 
CN1CCN(c2cccc(Nc3nc4c(-c5ccc(S(C)(=O)=O)cc5)cccn4n3)c2)CC1 [CEP-33779] |  |  | 1.5 K | 1.0 K | 
Cc1c(C(=O)N2CCOc3ccc(-c4ccc(N)nc4)cc3C2)ccc(S(C)(=O)=O)c1F [XL388] |  |  | 2.7 K | -1.4 K | 
CC(=O)c1c(C)c2cnc(Nc3ccc(N4CCNCC4)cn3)nc2n(C2CCCC2)c1=O [Palbociclib (PD-0332991) HCl, Palbociclib] | 0.2 °C | 0.5 °C |  |  | 
O=C(Nc1cccc(Nc2ncc(Br)c(NCCc3cnc[nH]3)n2)c1)N1CCCC1 [BX-912] |  |  | 2.8 K | 3.6 K | 
O=S(=O)(c1cccc2cnccc12)N1CCCNCC1 [Fasudil (HA-1077) HCl, Fasudil] | 0.9 °C | 0.8 °C |  |  | 
C1=C/COCc2cc(ccc2OCCN2CCCC2)Nc2nccc(n2)-c2cccc(c2)COC/1 [Pacritinib (SB1518), Pacritinib] | 1.5 °C | 1.6 °C |  |  | 
CCNC(=O)Nc1ccc(-c2nc3c(c(N4CCOC[C@@H]4C)n2)CCN(C2COC2)C3)cc1 [GDC-0349] | -1.3 °C | -0.5 °C |  |  | 
Cn1c(=O)n(-c2ccc(C(C)(C)C#N)cc2)c2c3cc(-c4cnc5ccccc5c4)ccc3ncc21 [Dactolisib] |  |  |  | 0.3 K | TM Shift LIMK2 (K) (LIMK2KD; 10 µM): -0.3 K; TM Shift LIMK2 (K) (LIMK2KD; listed as BEZ235 (NVP-BEZ235, Dactolisib), 10 µM): 0.1 K; TM Shift LIMK1 (K) (LIMK1KD; listed as BEZ235 (NVP-BEZ235, Dactolisib)): -0.1 K
Cc1c(CN2CCN(C(=O)[C@H](C)O)CC2)sc2c(N3CCOCC3)nc(-c3cnc(N)nc3)nc12 [GDC-0980 (RG7422)] |  |  | 0.6 K | 1.4 K | 
Cn1cc(C2=C(c3ccc(Cl)cc3Cl)C(=O)NC2=O)c2ccccc21 [SB216763] | 1.3 °C | 0.7 °C |  |  | 
Oc1ccc(Nc2nc(-c3ccc(Cl)cc3)cs2)cc1 [SKI II] |  |  | 1.4 K | -0.4 K | 
OCCn1cc(-c2ccc3c(c2)CC/C3=N\O)c(-c2ccncc2)n1 [GDC-0879] | 0 °C | -0.7 °C |  |  | 
COc1cc2nccc(Oc3ccc(NC(=O)Nc4ccc(F)cc4F)c(F)c3)c2cc1OC [Ki8751] |  |  | 1.5 K | -0.1 K | 
O=C(Nc1ccc(OC(F)(F)F)cc1)c1sccc1NCc1ccnc2ccccc12 [OSI-930] | 6.2 °C | 0.7 °C |  |  | 
Cc1ccc(C(=O)Nc2ccc(CN3CCN(C)CC3)c(C(F)(F)F)c2)cc1C#Cc1cnc2cccnn12 [Ponatinib (AP24534), Ponatinib] | 4.6 °C | 5 °C |  |  | 
COc1ccc(Cl)c(Nc2nc3ccccc3nc2NS(=O)(=O)c2cccc(NC(=O)C(C)(C)N)c2)c1 [XL147] |  |  |  | -0.1 K | TM Shift LIMK2 (K) (LIMK2KD; 10 µM): 0.6 K
O=c1c(-c2ccc(O)cc2)coc2cc(O)cc(O)c12 [Genistein] | 4 °C | -0.3 °C |  |  | 
COC(=O)c1ccc2c(c1)NC(=O)/C2=C(\Nc1ccc(N(C)C(=O)CN2CCN(C)CC2)cc1)c1ccccc1 [Nintedanib] | 0.3 °C | 1.3 °C |  |  | 

Compound | ΔTm at 10 µM (LIMK2KD) | ΔTm at 10 µM (LIMK1KD) | TM Shift LIMK2 (K) (LIMK2KD) | TM Shift LIMK1 (K) (LIMK1KD) | also measured
O=c1cc(N2CCOCC2)oc2c(-c3cccc4c3sc3ccccc34)cccc12 [NU7441 (KU-57788)] |  |  | -0.9 K | 0.5 K | 
CCn1c(C(=O)N(C2CC2)C2CC2)cc2c3c(ncn3C)c(Nc3cc(C)n(C)n3)nc21 [BMS-911543] | 0.3 °C | 1.8 °C |  |  | 
Cc1cnc(NC(=O)Nc2cc(Br)c(C)cc2OC[C@@H]2CNCCO2)cn1 [Rabusertib] |  |  |  | -1.1 K | TM Shift LIMK2 (K) (LIMK2KD; 10 µM): 0.2 K
CC(C)CCN1c2nc(Nc3cc(F)c(O)c(F)c3)ncc2N(C)C(=O)C1C (stereo not shown) [BI-D1870] |  |  | 3.9 K | 2.2 K | 
CC(C)(C)c1cc(C=C(C#N)C#N)cc(C(C)(C)C)c1O [Tyrphostin 9] |  |  | 6.3 K | 3.5 K | 
Cc1ccc(S(=O)(=O)/C=C/C#N)cc1 [BAY 11-7082] |  |  | 0.2 K | -0.8 K | 
Cc1c[nH]c(-c2cnc(NCCNc3ccc(C#N)cn3)nc2-c2ccc(Cl)cc2Cl)n1 [CHIR-99021 (CT99021) HCl] | -0.3 °C | 3.1 °C |  |  | 
O=c1ncn2nc(Sc3ccc(F)cc3F)ccc2c1-c1c(Cl)cccc1Cl [VX-745] | 1.3 °C | 0.6 °C |  |  | 
Cc1cc(C(C)Nc2ccccc2)c2nc(N3CCOCC3)cc(=O)n2c1 (stereo not shown) [TGX-221] |  |  | 0.0 K | 0.1 K | 
Nc1ncnc2c1c(-c1cccc(OCc3ccccc3)c1)cn2[C@H]1C[C@@H](CN2CCC2)C1 [NVP-AEW541] | 0.4 °C | -0.2 °C |  |  | 
CCc1nc(-c2cccc(C)c2)c(-c2ccnc(NC(=O)c3ccccc3)c2)s1 [TAK-715] | 2.6 °C | 0.4 °C |  |  | 
CCCS(=O)(=O)Nc1ccc(F)c(C(=O)c2c[nH]c3ncc(-c4ccc(Cl)cc4)cc23)c1F [Vemurafenib (PLX4032, RG7204), Vemurafenib] | 6 °C | 1.5 °C |  |  | 
CCc1cccc(CC)c1NC(=O)N1Cc2n[nH]c(NC(=O)c3ccc(N4CCN(C)CC4)cc3)c2C1 [PHA-680632] | 0.4 °C | 5 °C |  |  | 
COc1cc(Nc2ncc3c(n2)-c2ccc(Cl)cc2C(c2c(F)cccc2OC)=NC3)ccc1C(=O)O [Alisertib (MLN8237), Alisertib] | 1.8 °C | -0.3 °C |  |  | 
COc1cc(OC)c(/C=C/S(=O)(=O)Cc2ccc(OC)c(NCC(=O)O)c2)c(OC)c1 [Rigosertib (ON-01910), Rigosertib] | 1.6 °C | 2.7 °C |  |  | 
CCS(=O)(=O)c1cccc(-c2cc(C(=O)NC3CCN(C)CC3)c(C)c3[nH]c4ncc(C)cc4c23)c1 [TAK-901] | 0.3 °C | 3.7 °C |  |  | 
CCn1cc(-c2ccnc3[nH]c(-c4cccc(CN(C)C)c4)cc23)c(-c2ccc(NC(=O)N(C)C)cc2)n1 [GSK1070916] | -0.1 °C | 1.3 °C |  |  | 
AZ23 |  |  | 0.8 K | 3.6 K | 
CN(C)Cc1cccc(N/C(=C2\C(=O)Nc3cc(C(=O)N(C)C)ccc32)c2ccccc2)c1 [BIX 02189] |  |  | 4.5 K | 0.1 K | 
COc1cc(Nc2ncc(F)c(Nc3ccc4c(n3)N(COP(=O)(O)O)C(=O)C(C)(C)O4)n2)cc(OC)c1OC [Fostamatinib (R788), Fostamatinib] | 0.5 °C | 1 °C |  |  | 
COc1cc2c(N3CCN(C(=O)Nc4ccc(OC(C)C)cc4)CC3)ncnc2cc1OCCCN1CCCCC1 [Tandutinib (MLN518), Tandutinib] | 0 °C | 0.8 °C |  |  | 
COc1cccc(-c2cc(=O)c3ccccc3o2)c1N [PD98059] |  |  | -0.3 K | -0.8 K | 
CC(C)(C)Cn1c(N)nc2ccc(-c3[nH]c(C(C)(C)C)nc3-c3ccc(F)cc3)nc21 [LY2228820] |  |  |  | 2.1 K | TM Shift LIMK2 (K) (LIMK2KD; 10 µM): 4.4 K
Nc1ncnc2c1c(-c1cccc(OCc3ccccc3)c1)cn2C1CC(CN2CCCC2)C1 (stereo not shown) [NVP-ADW742] |  |  | 0.1 K | 0.2 K | 
Cc1ccc(Nc2nccc(N(C)c3ccc4c(C)n(C)nc4c3)n2)cc1S(N)(=O)=O [Pazopanib] | 6.2 °C |  |  |  | 
O=c1c(O)c(-c2ccc(O)c(O)c2)oc2cc(O)cc(O)c12 [Quercetin] | 3.9 °C |  |  |  | 
CNC(=O)c1cc(Oc2ccc(NC(=O)Nc3ccc(Cl)c(C(F)(F)F)c3)cc2)ccn1 [Sorafenib] |  |  |  | -0.7 K | 
